{"source": "patent US20110212909A1", "about": "“Use of Ginsenoside Compound K in the Preparation of a Medicament for the Prevention and Treatment of Atherosclerosis” (priority 2008, published 2011)", "key": {"[1]": {"test_system": "macrophage-derived foam cells of rat abdominal cavity", "assay": "Assay of amount of TC and CE in ox-LDL induced macrophage-derived foam cells", "type": "cell-based", "conditions": "25 μM, 48 hours, rat foam cells, x ± s, n = 5", "procedure": "1. Experiment animal: SD rats, male, 200-250 g, bought from the third Military Medical University Experiment Animal Center.\n2. Reagents: RPMI 1640 culture medium free of phenol red bought from Invitrogen company; LDL (115 mg/mL) bought from Peking Union Medical College; total cholesterol kit and free cholesterol kit bought from Shanghai Mind Bioengineering Limited Company; ginsenoside compound K (hereinafter being called C-K for short. White powders, purity 99%), provided by Kunming Nuowei Jinshen Bioengineering limited company supply (batch number: NTGA070521, details see China invention patent 200710066011. X “a method of preparing rare ginsenoside compound K by streptomycete fermentation of Sanchi saponins”).\nLDL was placed into PBS comprising 10 μM Cu^2+, dialysed at 37° C. for 12 h, then was placed into PBS comprising 0.01% EDTA, and dialysed at 4° C. for 24 hours before stopping oxidization, then was subjected to filtration sterilization, and stored for use.\n4. Culture of macrophage and establishment of foam cells model (available literature: Jia Yi, Li Xiaohui, Xing Mao, Hei Xuefeng, Liu Ya, He Cuiyao. Studies on affect of various combinations of 3 sorts of monomers in total panax notoginsenosides on formation of mouse macrophage-derived foam cells. Journal of China Pharmacy, 2008, 19 (2), 881-883.)\neach rat were intraperitoneally injected with 2 mL RPMI 1640 culture solution free of serum and phenol red, and it was sacrificed by cervical dislocation after 20 minutes, and was soaked in 75% ethanol for 10 minutes, then rat's belly was cut open, and fluids in abdominal cavity were collected, and centrifugated at 750 r/min for 5 minutes, and then cells were collected, and cells concentrations were adjusted to […] by using RPMI 1640 culture solution which were free of phenol red and comprised 10% Fetal Calf Serum. 10 pieces of 6 wells plate was added 1 mL cells suspension per well, and was placed into an incubator of 5% CO2 at 37 °C, and cultured for two hours, then supernatant was discarded, and nonadhesive cells was washed by using PBS. Original culture medium was discarded. Culture was carried out for 48 hours after adding 5 mL culture medium comprising 20 mg/L ox-LDL, and thereby foam cells were formed.\n[…] were divided into ox-LDL model group, pyrrolidine dithiocarbamate (PDTC) (drugs source: Sigma), control group and C-K interference group. Each group had 5 pieces of plates. […]\nCulture solution was aspirated, and lipid in foam cells was extracted by Folch method (reference: Folch J et al, A simple method for the isolation and purification of total lipides from animal tissues. J Biol Chem, 1957, 226 (1): 497-509), according to direction for use of kit.\nData was expressed as x±s, and variance analysis was carried out between groups by SPSS 13.0 software."}, "[2]": {"test_system": "CD36 mRNA", "assay": "Real-time quantitative PCR of CD36 mRNA in foam cells", "type": "cell-based", "conditions": "25 μM, rat foam cells", "procedure": "FIG. 1 provides effects of a ginsenoside compound K (C-K, 25 μM) and pyrrolidine dithiocarbamate (PDTC, 25 μM) on the foam cell CD36 mRNA expression. a: P<0.05, vs foam cell group; b: P<0.05, vs PDTC. PDTC (25 μM) C-K (25 μM) (n=5).\n(1) Material and reagents (the same as Example 2).\n(2) real-time quantitative PCR analysis (a reference method: Zhang Yiguan, Li Xiaohui, Fan Jishan, Zhang Haigang, Li Shuhui, Liao Wenqiang, Pang Yan, Jia Yi. Total panax notoginsenosides suppress atherosclerosis formation in rats by means of antiinflammatory and blood fat regulating action. Progress in Modern Biomedicine. 2007, 27(11): 1601-1607).\nData was expressed as x±s, variance analysis were carried out between groups by SPSS 13.0 software."}}, "note": "Marks after values point to notes of the source that are not given here."}
{"compound": "S=C(S)N1CCCC1", "note": "[PDTC, pyrrolidine dithiocarbamate, reference compound]", "values": [{"measurement": "CE in foam cells", "setting": "[1]; ox-LDL model group 15.24 ± 2.38", "result": "30.63 ± 3.17^a"}, {"measurement": "CE/TC in foam cells", "setting": "[1]; ox-LDL model group 59.56 ± 2.96", "result": "50.29 ± 3.54^a %"}, {"measurement": "TC in foam cells", "setting": "[1]; ox-LDL model group 87.20 ± 2.19", "result": "60.81 ± 2.62^a"}, {"measurement": "change of CD36 mRNA expression in foam cells compared with model group", "setting": "[2]", "result": "increased expression"}]}
